ChEMBL document CHEMBL5678811 (Invest New Drugs, 2014)
Calls of active or inactive are those of the source. The rule behind the calls is not given here.

Assays:
[1] = Toxicity in human COLO 205 cells xenografted CD1 nu/nu mouse assessed as change in jejunum histology at 50 mg/kg, po administered daily via gavage for 2 cycles of 3 weeks on/1 week rest and measured on day 41 to 69 by histopathological analysis; type: organism-based; conditions: in vivo, time 41-69 day
Mus musculus = species on record: Mus musculus; conditions: CD1, dose 50.0 mg/kg, route po, time 22.0 day
[2] = biological target: Glycogen synthase kinase-3 beta (Homo sapiens) (UniProt P49841); conditions: dose 200.0 nM
Sequence of Glycogen synthase kinase-3 beta (Homo sapiens) (P49841 whole entry, looked up): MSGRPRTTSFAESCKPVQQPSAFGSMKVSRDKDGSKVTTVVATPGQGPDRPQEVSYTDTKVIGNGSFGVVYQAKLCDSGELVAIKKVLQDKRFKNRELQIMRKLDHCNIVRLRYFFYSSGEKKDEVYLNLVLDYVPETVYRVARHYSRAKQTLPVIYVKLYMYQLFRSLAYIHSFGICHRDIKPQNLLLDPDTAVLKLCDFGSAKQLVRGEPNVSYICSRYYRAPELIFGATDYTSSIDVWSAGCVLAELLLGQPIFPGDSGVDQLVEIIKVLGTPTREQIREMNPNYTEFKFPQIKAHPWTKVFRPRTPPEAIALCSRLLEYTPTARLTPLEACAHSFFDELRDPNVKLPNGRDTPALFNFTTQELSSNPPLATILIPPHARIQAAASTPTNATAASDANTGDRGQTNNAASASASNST
Description: Inhibition of human GSK3beta relative to control

[3] = biological target: Homeodomain-interacting protein kinase 2 (Homo sapiens) (UniProt Q9H2X6); conditions: Sf21, dose 200.0 nM
Sequence of Homeodomain-interacting protein kinase 2 (Homo sapiens) (Q9H2X6 whole entry, looked up): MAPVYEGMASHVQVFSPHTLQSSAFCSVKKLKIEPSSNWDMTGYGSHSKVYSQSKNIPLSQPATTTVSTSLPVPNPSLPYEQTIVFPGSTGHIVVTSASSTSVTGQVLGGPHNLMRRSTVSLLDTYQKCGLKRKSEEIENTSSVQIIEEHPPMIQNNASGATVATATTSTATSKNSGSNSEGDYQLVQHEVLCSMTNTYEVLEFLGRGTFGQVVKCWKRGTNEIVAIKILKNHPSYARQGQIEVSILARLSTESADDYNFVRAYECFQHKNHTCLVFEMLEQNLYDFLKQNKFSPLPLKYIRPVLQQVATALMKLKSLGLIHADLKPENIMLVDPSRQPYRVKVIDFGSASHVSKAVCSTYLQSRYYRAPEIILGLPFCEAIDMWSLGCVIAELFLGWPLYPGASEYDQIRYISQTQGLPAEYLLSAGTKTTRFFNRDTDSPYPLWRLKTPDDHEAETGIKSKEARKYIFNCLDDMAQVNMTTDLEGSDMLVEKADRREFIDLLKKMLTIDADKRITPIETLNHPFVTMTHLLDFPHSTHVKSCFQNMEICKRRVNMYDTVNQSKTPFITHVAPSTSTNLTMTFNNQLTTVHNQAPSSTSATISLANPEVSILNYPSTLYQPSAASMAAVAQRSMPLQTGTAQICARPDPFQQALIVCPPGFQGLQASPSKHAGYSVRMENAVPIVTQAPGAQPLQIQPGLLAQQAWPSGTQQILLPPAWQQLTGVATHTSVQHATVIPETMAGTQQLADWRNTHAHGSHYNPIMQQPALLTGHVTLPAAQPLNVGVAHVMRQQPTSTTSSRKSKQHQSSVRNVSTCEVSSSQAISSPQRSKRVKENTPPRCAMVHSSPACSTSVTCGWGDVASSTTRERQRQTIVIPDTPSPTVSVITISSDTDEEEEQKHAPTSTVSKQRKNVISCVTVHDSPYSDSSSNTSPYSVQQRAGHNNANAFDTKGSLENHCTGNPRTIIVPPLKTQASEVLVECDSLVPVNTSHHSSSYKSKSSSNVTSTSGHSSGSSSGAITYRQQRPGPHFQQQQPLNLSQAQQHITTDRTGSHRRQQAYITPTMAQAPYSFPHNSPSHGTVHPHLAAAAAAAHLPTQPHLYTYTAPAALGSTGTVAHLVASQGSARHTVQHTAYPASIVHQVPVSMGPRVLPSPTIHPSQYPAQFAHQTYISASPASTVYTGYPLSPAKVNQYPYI
Description: Inhibition of recombinant human N-terminal His6-tagged HIPK2 (165 to 564 residues) expressed in baculovirus infected Sf21 insect cells at 200 nM using MBP as substrate relative to control

MV4-11 [4] = experiment: Cell cycle arrest in human MV4-11 cells assessed as accumulation of cells at S-phase at 0.04 uM measured after 24 hrs by propidium iodide staining based flow cytometry (reference value: 23.35%); type: functional
[5] = Plasma concentration at steady state in human COLO 205 cells xenografted po dosed CD1 nu/nu mouse; type: ADME, organism-based; conditions: in vivo
MV4-11 [6] = experiment: Cell cycle arrest in human MV4-11 cells assessed as accumulation of cells at S-phase at 0.32 uM measured after 24 hrs by propidium iodide staining based flow cytometry (reference value: 23.35%); type: functional
COLO 205 [7] = conditions: Mus musculus, CD1, dose 50.0 mg/kg, route po, time lower 1.0 hrs, time upper […], TDE = time-dependent effect
MV4-11 [8] = experiment: Cell cycle arrest in human MV4-11 cells assessed as accumulation of cells at G2/M-phase at […] measured after 24 hrs by propidium iodide staining based flow cytometry (reference value: 15.23%); type: functional; conditions: dose 0.625 µM
MV4-11 [9] = experiment: Cell cycle arrest in human MV4-11 cells assessed as accumulation of cells at G1-phase at 0.04 uM measured after 24 hrs by propidium iodide staining based flow cytometry (reference value: 61.42%); type: functional
COLO 205 [10] = conditions: Mus musculus, CD1, dose 100.0 mg/kg, route po, time 21.0 day
MDA-MB-468 = experiment: Cell cycle arrest in human MDA-MB-468 cells assessed as accumulation of cells at G2/M-phase at 0.16 uM measured after 24 hrs by propidium iodide staining based flow cytometry (reference value: 26.49%); type: functional
MV4-11 [11] = experiment: Cell cycle arrest in human MV4-11 cells assessed as accumulation of cells at G2/M-phase at 2.5 uM measured after 24 hrs by propidium iodide staining based flow cytometry (reference value: 15.23%); type: functional
[12] = biological target: Receptor-type tyrosine-protein kinase FLT3 (Homo sapiens) (UniProt P36888); conditions: Sf21, dose 200.0 nM
Sequence of Receptor-type tyrosine-protein kinase FLT3 (Homo sapiens) (P36888 whole entry): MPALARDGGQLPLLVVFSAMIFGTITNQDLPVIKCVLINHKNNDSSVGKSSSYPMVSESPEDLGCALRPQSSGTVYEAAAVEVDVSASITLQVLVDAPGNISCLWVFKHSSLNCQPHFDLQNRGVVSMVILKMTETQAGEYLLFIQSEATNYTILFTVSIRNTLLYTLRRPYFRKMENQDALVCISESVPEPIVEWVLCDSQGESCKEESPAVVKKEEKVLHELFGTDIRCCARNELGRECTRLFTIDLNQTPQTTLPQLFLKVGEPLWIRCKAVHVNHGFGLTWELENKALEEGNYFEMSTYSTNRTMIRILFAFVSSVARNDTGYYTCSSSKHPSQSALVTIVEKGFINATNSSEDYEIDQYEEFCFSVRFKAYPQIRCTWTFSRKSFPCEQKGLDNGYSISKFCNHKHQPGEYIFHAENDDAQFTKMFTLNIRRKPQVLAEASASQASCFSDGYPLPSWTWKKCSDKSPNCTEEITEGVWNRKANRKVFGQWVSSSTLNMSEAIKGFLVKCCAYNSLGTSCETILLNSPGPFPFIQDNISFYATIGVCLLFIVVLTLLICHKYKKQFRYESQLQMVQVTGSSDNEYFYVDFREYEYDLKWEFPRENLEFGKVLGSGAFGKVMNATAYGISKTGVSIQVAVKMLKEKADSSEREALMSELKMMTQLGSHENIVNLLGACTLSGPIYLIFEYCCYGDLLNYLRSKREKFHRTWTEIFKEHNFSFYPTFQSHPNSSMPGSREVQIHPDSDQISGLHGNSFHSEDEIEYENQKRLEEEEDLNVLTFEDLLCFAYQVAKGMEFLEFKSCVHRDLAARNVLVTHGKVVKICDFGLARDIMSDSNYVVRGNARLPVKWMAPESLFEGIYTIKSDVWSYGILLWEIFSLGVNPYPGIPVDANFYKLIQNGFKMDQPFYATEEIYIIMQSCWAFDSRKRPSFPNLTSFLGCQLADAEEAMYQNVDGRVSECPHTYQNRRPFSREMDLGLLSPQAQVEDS
Description: Inhibition of recombinant human N-terminal GST-tagged FLT3 (564 to end residues) expressed in baculovirus infected Sf21 cells at 200 nM using Abltide as substrate relative to control

For `CCN1CCN(Cc2ccc(Nc3ncc(F)c(-c4cc(F)c5nc(C)n(C(C)C)c5c4)n3)nc2)CC1` [ABEMACICLIB], the Activity [1] was “Non-Toxic”, the inhibition (Mus musculus) was “inactive” and the inhibition [2] was over 90%. For the same molecule, the inhibition [3] was over 90%, the Activity (MV4-11 [4]) was 16.32% and the Cpss [5] was ~ 400 nM. The Activity (MV4-11 [6]) was 2.68%, the inhibition (COLO 205 [7]) was “Tde” and the Activity (MV4-11 [8]) was 1.78%. The Activity (MV4-11 [9]) was 77.47%, the inhibition (COLO 205 [10]) was “Active” and the Activity (MDA-MB-468) was 24.55%. It also gave an Activity (MV4-11 [11]) of 2.96% and an inhibition [12] of over 90%.
